Source: paper PMC10707934, “Design and Synthesis of Novel α-Methylchalcone Derivatives, Anti-Cervical Cancer Activity, and Reversal of Drug Resistance in HeLa/DDP Cells” (Molecules, 2023)

How the values were obtained:
Type in all cases: cell-based, human
[1] = test system: α-/β-tubulins in HeLa/DDP cells; assay: Western blot of polymerized and dissociated α-/β-tubulins, HeLa/DDP; conditions: versus control
Description: (§1) HeLa cells were cultured in 60 mm Petri dishes at a density of 1.0 × 10^6 cells per dish and treated with 0.1% DMSO (vehicle), positive control chalcone (20 μM), and different concentrations of compound 3k (2.5, 5, and 10 μM), respectively. Following a 24 and 48 h incubation period, the cells were harvested via centrifugation and subsequently washed twice with PBS that had been chilled to 0 °C. Next, the cells were homogenized using RIPA lysis buffer (Solarbio, Beijing, China) and supplemented with 1% PMSF (MP Biomedicals, 0754-25G, CAS:329-98-6, Santa Ana, CA, USA) and 1% mixed phosphatase inhibitor (Solarbio, Beijing, China). The resulting lysates were then incubated on ice for 30 min, intermittently vortexed every 5 min, and subsequently centrifuged at 12,000 rpm for 20 min to collect the supernatants.
Subsequently, the protein concentrations were determined utilizing a BCA Protein Assay Kit (Solarbio, China). An equivalent quantity of the proteins (12 μg) was fractionated via 8–12% sodium dodecyl sulfate–polyacrylamide gel electrophoresis (SDS-PAGE) and transferred onto nitrocellulose membranes (Amersham Biosciences, Amersham, UK). Following this, the membranes were obstructed with 5% nonfat dried milk in TBS containing 1% Tween-20 for a duration of 2 h at ambient temperature and were subjected to overnight incubation with specific primary antibodies (CST, Boston, MA, USA) at 4 °C. Following three washes in TBST, the membranes were subjected to incubation with the suitable HRP-conjugated secondary antibodies at ambient temperature for a duration of 2 h. The blots were subsequently visualized using enhanced chemiluminescence (Biosharp, Shanghai, China) and detected utilizing a PE 0723 imager (ProteinSimple, Silicon Valley, CA, USA). Each experiment was conducted in triplicate at minimum and analyzed employing Image J software (V1.8.0.112). β-actin(ab198991) rabbit mAb, goat anti-rabbit IgG (H + L) HRP—#S0001 (Affinity). Bax (ab289364), Bcl-2 (ab218123), MDR1/ABCB1 (E1Y7B) rabbit mAb #13342 (CST).
Polymerized and free microtubule proteins were extracted using the methods described in references, respectively. Following drug intervention, the cells were subjected to two washes with preheated microtubule protein buffer MTSB at 37 °C. Subsequently, 70 μL of MTSB was added, and the cells were lysed for 10 min at 37 °C in a constant temperature chamber shielded from light. The cells were then scraped with a spatula and centrifuged at 14,000 r/min for 10 min at room temperature. The resulting supernatant, which represented the free state microtubule protein suspension, was subsequently removed. The remaining precipitate was treated with RIPA lysis solution, followed by lysis on ice for a duration of 30 min. Subsequently, centrifugation was performed at a temperature of 4 °C and a speed of 12,000 revolutions per minute for a duration of 20 min. The resulting supernatant was collected as a suspension of polymerized microtubule protein. The Western blotting procedure was the same as in Section 3.3.4. α-Tubulin (DM1A) Mouse mAb#3873 (CST), β-Tubulin (D2N5G) Rabbit mAb #15115 (CST), CoraLite488-conjugated Goat Anti-Mouse lgG(H+L) (Proteintech); CoraLite488-conjugated Goat Anti-Rabbit lgG(H+L) (Proteintech); β-actin(ab198991) rabbit mAb, Goat Anti-Mouse IgG H&L (HRP) (ab6789); Goat anti-Rabbit IgG (H+L) HRP—#S0001 (Affinity).

HeLa cells = assay: Transwell migration assay, HeLa; conditions: 24 h, control 1176
Description: HeLa (5 × 10^4 cells) was suspended in 200 μL of FBS-free medium. The top chamber contained the vehicle and various concentrations of compound 3k (2.5, 5, and 10 μM), cisplatin (20 μM) and chalcone (20 μM). The lower chamber was filled with 600 μL of medium containing 10% FBS. After incubating at 37 °C for 24 h, the cells on the top side of the Transwell membrane were removed with a cotton tip. Cells were fixed and stained with 4% paraformaldehyde (LEAGENE BIOTECHNOLOGY, Cat:DF0135, Lot:0823A23, Zhongguancun, Haidian District, Beijing, China) and 0.1% crystal violet solutions (Leagene Biotechnology, Cat:DZ0055, Lot:0508A23, Zhongguancun, Haidian District, Beijing, China) for 30 min to fix cells trapped on the perforated side of the membrane.

[2] = test system: α-tubulin, β-tubulin in HeLa/DDP cells; assay: Immunofluorescence assay of microtubules, HeLa/DDP; conditions: 24 h, 3k 1, 2, and 4 μM, paclitaxel 2.0 μM
Description: The cells were then fixed by adding 400 μL of 4% paraformaldehyde to each well and incubating for 30 min. 0.1% Triton was added at a volume of 400 μL per well and allowed to incubate for 10 min. Following this, goat serum (10%) was added at 400 μL per well and incubated for 40 min. Primary antibodies (α-tubulin, β-tubulin) were then incubated overnight at a temperature of 4 °C. Subsequently, secondary antibodies (α-mouse, β-rabbit) were incubated for 1.5 h. DAPI staining was performed at 400 μL per well for 5 min, followed by a wash with PBS. Cell climbing tablets were removed and inverted onto slides with sealer. Photographs were captured using a fluorescent inverted microscope.

Bcl-2 = assay: Western blot, Bcl-2 expression in HeLa/DDP cells; conditions: 24 h, 2.5, 5, and 10 μM
Description: as §1, with “The resulting lysates were then incubated on ice for 30 min, intermittently vortexed every 5 min, and subsequently centrifuged at 12,000 rpm for 20 min to collect the supernatants.” left out
Subsequently, the protein concentrations were determined utilizing a BCA Protein Assay Kit (Solarbio, China). An equivalent quantity of the proteins (12 μg) was fractionated via 8–12% sodium dodecyl sulfate–polyacrylamide gel electrophoresis (SDS-PAGE) and transferred onto nitrocellulose membranes (Amersham Biosciences, Amersham, UK). […] The blots were subsequently visualized using enhanced chemiluminescence (Biosharp, Shanghai, China) and detected utilizing a PE 0723 imager (ProteinSimple, Silicon Valley, CA, USA). Each experiment was conducted in triplicate at minimum and analyzed employing Image J software (V1.8.0.112). β-actin(ab198991) rabbit mAb, goat anti-rabbit IgG (H + L) HRP—#S0001 (Affinity). […]

COc1ccc(/C=C(\C)C(=O)c2ccc(Cl)c(Cl)c2)cc1OC [Compound 3k, (E)-1-(3,4-Dichlorophenyl)-3-(3,4-dimethoxyphenyl)-2-methylprop-2-en-1-one]
expression of polymerized β microtubulin ([1]; 24 h, 1, 2, and 4 μM): significant reduction
expression of polymerized α-microtubulin ([1]; 24 h, 2 and 4 μM): significant decrease
expression of dissociated state α and β microtubule proteins ([1]; 24 h, 3k 4 μM, colchicine and paclitaxel 2.0 μM): significant increase
number of migrated cells (HeLa cells; 2.5 μM): 518
number of migrated cells (HeLa cells; 5 μM): 388
number of migrated cells (HeLa cells; 10 μM): 166
microtubule immunofluorescence (α green, β red) [2]: attenuation of the green and red fluorescence of the enclosed cells
Bcl-2 expression versus control group (Bcl-2): significantly downregulate
